Test results reported in patent US20240246967A1, “AXL COMPOUNDS” (ARCUS BIOSCIENCES, INC., priority 2021, published 2024).

Key:
human MER = molecular target: T1, human MER (Homo sapiens, UniProt Q12866); assay: HTRF KinEASE-TK biochemical potency assay, MER; conditions: 1 nM MER, 700 μM ATP, 800 nM TK Substrate-biotin
T1 construct: purchased Invitrogen
T1 sequence (Q12866 21-999): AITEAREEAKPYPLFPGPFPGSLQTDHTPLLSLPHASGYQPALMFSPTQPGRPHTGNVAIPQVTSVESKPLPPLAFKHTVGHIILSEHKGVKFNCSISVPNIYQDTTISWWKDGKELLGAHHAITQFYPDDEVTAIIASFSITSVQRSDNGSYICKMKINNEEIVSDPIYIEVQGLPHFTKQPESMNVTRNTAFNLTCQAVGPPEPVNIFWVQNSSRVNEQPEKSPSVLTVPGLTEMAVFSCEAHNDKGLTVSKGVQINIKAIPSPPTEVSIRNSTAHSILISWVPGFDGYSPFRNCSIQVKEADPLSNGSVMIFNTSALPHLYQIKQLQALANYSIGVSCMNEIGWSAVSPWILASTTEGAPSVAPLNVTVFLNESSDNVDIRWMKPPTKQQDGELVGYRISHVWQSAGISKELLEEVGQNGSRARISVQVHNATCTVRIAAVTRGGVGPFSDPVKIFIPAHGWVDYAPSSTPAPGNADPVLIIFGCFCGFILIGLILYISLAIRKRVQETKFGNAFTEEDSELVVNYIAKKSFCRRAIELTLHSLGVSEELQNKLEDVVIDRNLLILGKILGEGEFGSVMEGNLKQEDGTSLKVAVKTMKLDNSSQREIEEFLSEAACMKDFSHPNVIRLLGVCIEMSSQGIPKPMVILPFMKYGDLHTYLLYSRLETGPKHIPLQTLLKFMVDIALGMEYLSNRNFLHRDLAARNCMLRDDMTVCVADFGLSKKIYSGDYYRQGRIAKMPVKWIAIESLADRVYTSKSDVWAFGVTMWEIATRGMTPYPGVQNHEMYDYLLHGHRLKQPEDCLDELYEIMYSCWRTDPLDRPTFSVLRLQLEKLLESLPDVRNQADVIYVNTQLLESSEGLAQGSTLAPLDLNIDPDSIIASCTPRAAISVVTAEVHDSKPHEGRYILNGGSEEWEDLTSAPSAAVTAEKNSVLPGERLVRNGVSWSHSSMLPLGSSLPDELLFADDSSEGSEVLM
Outline: (§1)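 Enzyme (final 5 nM AXL; 1 nM TYRO3 or MER) plus compound, 1 h RT → add biotinylated TK substrate (800 nM final) and ATP (700 μM final) → 2 h RT → stop into HTRF detection mix → read 665/620 nm. Activity normalised to DMSO and pre-stopped blanks.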

human TYRO3 = molecular target: T2, human TYRO3 (Homo sapiens, UniProt Q06418); assay: HTRF KinEASE-TK biochemical potency assay, TYRO3; conditions: 1 nM TYRO3, 700 μM ATP, 800 nM TK Substrate-biotin
T2 construct: purchased Invitrogen
T2 sequence (Q06418 41-890): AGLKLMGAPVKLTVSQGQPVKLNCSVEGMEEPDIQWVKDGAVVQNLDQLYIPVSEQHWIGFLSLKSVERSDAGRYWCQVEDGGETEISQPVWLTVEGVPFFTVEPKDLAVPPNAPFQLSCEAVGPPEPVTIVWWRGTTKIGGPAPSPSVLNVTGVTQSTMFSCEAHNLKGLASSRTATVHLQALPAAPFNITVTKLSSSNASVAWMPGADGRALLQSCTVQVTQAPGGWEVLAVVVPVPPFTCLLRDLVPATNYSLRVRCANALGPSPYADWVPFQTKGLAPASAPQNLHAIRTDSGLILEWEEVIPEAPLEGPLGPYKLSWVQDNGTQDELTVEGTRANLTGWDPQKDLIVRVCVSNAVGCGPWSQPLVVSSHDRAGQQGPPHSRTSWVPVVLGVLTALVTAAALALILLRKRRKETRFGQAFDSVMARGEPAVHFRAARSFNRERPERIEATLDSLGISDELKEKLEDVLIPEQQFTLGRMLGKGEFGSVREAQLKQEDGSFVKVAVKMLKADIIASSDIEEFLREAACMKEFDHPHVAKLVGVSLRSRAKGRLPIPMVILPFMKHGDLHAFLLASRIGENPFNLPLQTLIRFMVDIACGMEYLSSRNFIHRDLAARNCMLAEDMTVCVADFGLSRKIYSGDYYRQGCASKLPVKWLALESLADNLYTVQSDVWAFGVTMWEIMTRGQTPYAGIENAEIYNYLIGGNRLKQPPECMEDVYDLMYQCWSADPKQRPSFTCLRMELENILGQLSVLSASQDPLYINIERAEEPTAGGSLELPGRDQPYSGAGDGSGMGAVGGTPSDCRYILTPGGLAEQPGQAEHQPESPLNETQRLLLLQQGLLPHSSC
Outline: as §1

Compound | IC50 (human MER) [nM] | IC50 (human TYRO3) [nM]
CC1(N2CCOCC2)CCc2ccc(-c3cnc4[nH]nc(-c5ccc(S(=O)(=O)C6CC6)cc5)c4c3)cc2CC1 (stereo not shown) [Example 2, 4-(2-{3-[4-(Cyclopropanesulfonyl)phenyl]-1H-pyrazolo[3,4-b]pyridin-5-yl}-7-methyl-6,7,8,9-tetrahydro-5H-benzo[7]annulen-7-yl)morpholine] | > 1000 | > 1000
C[C@@H]1CCCN1C1CCc2ccc(-c3cnc4[nH]nc(-c5ccc(C6(O)COC6)c(Cl)c5)c4c3)cc2CC1 (stereo partly drawn) [Example 64, 3-[2-Chloro-4-(5-{7-[(2R)-2-methylpyrrolidin-1-yl]-6,7,8,9-tetrahydro-5H-benzo[7]annulen-2-yl}-1H-pyrazolo[3,4-b]pyridin-3-yl)phenyl]oxetan-3-ol] | > 1000 | 100 to 1000
C[C@@H]1CCCN1C1(C)CCc2ccc(-c3cnc4[nH]nc(-c5ccc(C(N)=O)c(Cl)c5)c4c3)cc2CC1 (stereo partly drawn) [Example 68, 2-Chloro-4-(5-{7-methyl-7-[(2R)-2-methylpyrrolidin-1-yl]-6,7,8,9-tetrahydro-5H-benzo[7]annulen-2-yl}-1H-pyrazolo[3,4-b]pyridin-3-yl)benzamide] | < 100 | < 100
CC(C)NC(=O)c1ccc(-c2n[nH]c3ncc(-c4ccc5c(c4)CCC(C)(N4CCC[C@H]4C)CC5)cc23)cc1 (stereo partly drawn) [Example 70, 4-(5-{7-Methyl-7-[(2R)-2-methylpyrrolidin-1-yl]-6,7,8,9-tetrahydro-5H-benzo[7]annulen-2-yl}-1H-pyrazolo[3,4-b]pyridin-3-yl)-N-(propan-2-yl)benzamide] | > 1000 | 100 to 1000
CCC1(N2CCC[C@H]2CO)CCc2ccc(-c3cnc4[nH]nc(-c5ccc(C(N)=O)c(Cl)c5)c4c3)cc2CC1 (stereo partly drawn) [Example 75, 2-Chloro-4-(5-{7-ethyl-7-[(2S)-2-(hydroxymethyl)pyrrolidin-1-yl]-6,7,8,9-tetrahydro-5H-benzo[7]annulen-2-yl}-1H-pyrazolo[3,4-b]pyridin-3-yl)benzamide] | < 100 | < 100
C[C@@H]1CCCN1C1(C)CCc2ccc(-c3cnc4[nH]nc(-c5ccc(C(=O)N6CCC6)cc5)c4c3)cc2CC1 (stereo partly drawn) [Example 76, (2R)-1-(2-{3-[4-(Azetidine-1-carbonyl)phenyl]-1H-pyrazolo[3,4-b]pyridin-5-yl}-7-methyl-6,7,8,9-tetrahydro-5H-benzo[7]annulen-7-yl)-2-methylpyrrolidine] | 100 to 1000 | 100 to 1000
NC(=O)c1ccc(-c2n[nH]c3ncc(-c4ccc5c(c4)CCC(N4CCCC4)CC5)cc23)cc1Cl (stereo not shown) [Example 77, 2-Chloro-4-(5-(7-(pyrrolidin-1-yl)-6,7,8,9-tetrahydro-5H-benzo[7]annulen-2-yl)-1H-pyrazolo[3,4-b]pyridin-3-yl)benzamide] | < 100 | < 100

More lines, now with the values ahead:

IC50 (human MER) [nM] | IC50 (human TYRO3) [nM] | Compound
100 to 1000 | < 100 | C[C@@H]1CCCN1C1(C)CCc2ccc(-c3cnc4[nH]nc(-c5ccc(S(=O)(=O)C6CC6)cc5)c4c3)cc2CC1 (stereo partly drawn) [Example 1, 3-(4-(Cyclopropylsulfonyl)phenyl)-5-(7-methyl-7-((R)-2-methylpyrrolidin-1-yl)-6,7,8,9-tetrahydro-5H-benzo[7]annulen-2-yl)-1H-pyrazolo[3,4-b]pyridine]
100 to 1000 | < 100 | CC1(N2CCC[C@@H]2CO)CCc2ccc(-c3cnc4[nH]nc(-c5ccc(S(=O)(=O)C6CC6)cc5)c4c3)cc2CC1 (stereo partly drawn) [Example 3, [(2R)-1-(2-{3-[4-(Cyclopropanesulfonyl)phenyl]-1H-pyrazolo[3,4-b]pyridin-5-yl}-7-methyl-6,7,8,9-tetrahydro-5H-benzo[7]annulen-7-yl)pyrrolidin-2-yl]methanol]
100 to 1000 | 100 to 1000 | C[C@@H]1CCCN1C1CCc2ccc(-c3cnc4[nH]nc(-c5ccc(C6(O)CCOC6)c(Cl)c5)c4c3)cc2CC1 (stereo partly drawn) [Example 63, 3-[2-Chloro-4-(5-{7-[(2R)-2-methylpyrrolidin-1-yl]-6,7,8,9-tetrahydro-5H-benzo[7]annulen-2-yl}-1H-pyrazolo[3,4-b]pyridin-3-yl)phenyl]oxolan-3-ol]
100 to 1000 | 100 to 1000 | C[C@@H]1CCCN1C1CCc2ccc(-c3cnc4[nH]nc(-c5cnc(C(C)(C)O)c(Cl)c5)c4c3)cc2CC1 (stereo partly drawn) [Example 65, 2-[3-Chloro-5-(5-{7-[(2R)-2-methylpyrrolidin-1-yl]-6,7,8,9-tetrahydro-5H-benzo[7]annulen-2-yl}-1H-pyrazolo[3,4-b]pyridin-3-yl)pyridin-2-yl]propan-2-ol]
100 to 1000 | < 100 | COC1CCN(C(=O)c2ccc(-c3n[nH]c4ncc(-c5ccc6c(c5)CC[C@@H](N5CCCC5)CC6)cc34)cc2Cl)CC1 [Example 66, (S)-(2-Chloro-4-(5-(7-(pyrrolidin-1-yl)-6,7,8,9-tetrahydro-5H-benzo[7]annulen-2-yl)-1H-pyrazolo[3,4-b]pyridin-3-yl)phenyl)(4-methoxypiperidin-1-yl)methanone]
100 to 1000 | < 100 | COC1CCN(C(=O)c2ccc(-c3n[nH]c4ncc(-c5ccc6c(c5)CCC(C)(N5CCC[C@H]5C)CC6)cc34)cc2Cl)CC1 (stereo partly drawn) [Example 67, 1-[2-Chloro-4-(5-{7-methyl-7-[(2R)-2-methylpyrrolidin-1-yl]-6,7,8,9-tetrahydro-5H-benzo[7]annulen-2-yl}-1H-pyrazolo[3,4-b]pyridin-3-yl)benzoyl]-4-methoxypiperidine]
100 to 1000 | 100 to 1000 | C[C@@H]1CCCN1C1(C)CCc2ccc(-c3cnc4[nH]nc(-c5ccc(C(=O)NC6CC6)cc5)c4c3)cc2CC1 (stereo partly drawn) [Example 69, N-Cyclopropyl-4-(5-{7-methyl-7-[(2R)-2-methylpyrrolidin-1-yl]-6,7,8,9-tetrahydro-5H-benzo[7]annulen-2-yl}-1H-pyrazolo[3,4-b]pyridin-3-yl)benzamide]
> 1000 | 100 to 1000 | COCCNC(=O)c1ccc(-c2n[nH]c3ncc(-c4ccc5c(c4)CCC(C)(N4CCC[C@H]4C)CC5)cc23)cc1 (stereo partly drawn) [Example 72, N-(2-Methoxyethyl)-4-(5-{7-methyl-7-[(2R)-2-methylpyrrolidin-1-yl]-6,7,8,9-tetrahydro-5H-benzo[7]annulen-2-yl}-1H-pyrazolo[3,4-b]pyridin-3-yl)benzamide]
< 100 | < 100 | CCC1(N2CCC[C@H]2C)CCc2ccc(-c3cnc4[nH]nc(-c5ccc(C(N)=O)c(Cl)c5)c4c3)cc2CC1 (stereo partly drawn) [Example 73, 2-Chloro-4-(5-{7-ethyl-7-[(2R)-2-methylpyrrolidin-1-yl]-6,7,8,9-tetrahydro-5H-benzo[7]annulen-2-yl}-1H-pyrazolo[3,4-b]pyridin-3-yl)benzamide]
< 100 | < 100 | CCC1(N2CCC[C@@H]2CO)CCc2ccc(-c3cnc4[nH]nc(-c5ccc(C(N)=O)c(Cl)c5)c4c3)cc2CC1 (stereo partly drawn) [Example 74, 2-Chloro-4-(5-{7-ethyl-7-[(2R)-2-(hydroxymethyl)pyrrolidin-1-yl]-6,7,8,9-tetrahydro-5H-benzo[7]annulen-2-yl}-1H-pyrazolo[3,4-b]pyridin-3-yl)benzamide]
